Tests used:
[1] = Plasma concentration of tolterodine after aerosol administration (inhalation) in mice; format: in vivo
Protocol: Female BALB/C mice, weight range 19-22 g, were obtained from Charles River Laboratories (Kingston, N.C.). They received food and water ad libitum. All procedures in these studies were in compliance with the Animal Welfare Act Regulation, 9CFR Parts 1 and 2, Publication (NIH) 85-23, 1985.
This nebulizer generates a mean aerosol particle size of 1.3 microns at a rate of approximately 0.25 ml/minute.
Blood samples were taken via cardiac puncture under isoflurane anesthesia at 5, 15, 30, 60, 120, and 240 minutes after in treatment and at 2.5, 5, 15, 30, 60, and 120 minutes after aerosol drug treatment.
The samples were collected in tubes containing EDTA and centrifuged at 12000×g for four minutes. Plasma was removed and stored at −70° C. until assay.
Plasma samples were extracted via a liquid/liquid extraction technique. […] Chromatographically, the analyte and internal standard were resolved on a Zorbax ACE Phenyl column (2.1×50mm) using a gradient elution. The total analysis time was 4 minutes with a limit of quantization of 100 pg/mL.
Female BALB/c mice, weight range 19-22 g, were obtained from Charles River Laboratories (Kingston, N.C.). They received food and water ad libitum. All procedures in these studies were in compliance with the Animal Welfare Act Regulation, 9CFR Parts 1 and 2, Publication (NIH) 85-23, 1985.
The duration of aerosol treatment was five minutes. Blood samples were collected via cardiac puncture at 2.5, 5, 15, 30, 60, and 120 minutes following the end of the drug nebulization period.
The samples from were collected in tubes containing EDTA and centrifuged at 12000×g for four minutes. Plasma was removed and stored at −70° C. until assay.

[2] = human serum; Nilvebrant et al., Life Sciences 60 (1997); cited from earlier work

SMILES	Plasma levels ([1]; female BALB/c mice, inhalation of nebulized 0.1 mg/mL solution for five minutes, 2.5-120 minutes after nebulization)	Rise in tolterodine plasma concentration ([1]; mice, aerosol administration (FIGS. 1 and 2))	Absorption into the circulation ([1]; mice, inhalation of nebulized solutions at 0.1, 0.5 or 1.0 mg/mL)	Fraction unbound [2]
Cc1ccc(O)c([C@H](CCN(C(C)C)C(C)C)c2ccccc2)c1.O=C(O)C(O)C(O)C(=O)O [tolterodine L-tartrate, (R)-N,N-diisopropyl-3-(2-hydroxy-5-methylphenyl)-3-phenylpropanamine L-tartrate]	at or below-detection limits			
Cc1ccc(O)c([C@H](CCN(C(C)C)C(C)C)c2ccccc2)c1 [tolterodine, 2-[(1R)-3-(diisopropylamino)-1-phenylpropyl]-4-methylphenol]		within a few minutes a distinct and instant rise	rapidly absorbed into the circulation	3.7%
CC(C)N(CC[C@H](c1ccccc1)c1cc(CO)ccc1O)C(C)C [5-HM, 2-[(1R)-3-(diisopropylamino)-1-phenylpropyl]-4-(hydroxymethyl)phenol]				36%

From patent US20030144352A1, “Antimuscarinic aerosol” (priority 2001, published 2003)
